Source: ChEMBL document CHEMBL1201862, “PubChem BioAssay data set” (2004)
Active and inactive are the calls of the source. For most assays here, no stated cut-off is given here; in the data, actives have a measured EC50 and inactives only a lower limit.

Tests used:
[1] = molecular target: FAD-linked sulfhydryl oxidase ALR (Homo sapiens, UniProt P55789); assay: inhibitors of human ALR sulfhydryl oxidase, dose response, biochemical, H2O2 detection, luminescence, cherry-pick (AID 493248)
[2] = tested on: Streptococcus sp. 'group A'; assay: growth inhibition of control SK(-) GAS strain, dose response, counter-screen for streptokinase expression inhibitor project, luminescence, kanamycin, BacTiterGlo, confirmation (AID 1900); type: functional, organism-based
[3] = tested on: Streptococcus; assay: Group A Streptococcus viability loss, dose response, counter-screen for streptokinase expression inhibitor project, luminescence, BacTiterGlo (AID 1915); type: functional, organism-based;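 further: potency for reduction of bacterial viability or growth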
[4] = molecular target: T1, Streptokinase A (Streptococcus pyogenes serotype M1, UniProt P10520); assay: S. pyogenes streptokinase expression inhibitors, potency, dose response, plasminogen activation absorbance, OD405 (AID 1914); type: functional, Streptococcus pyogenes M1 GAS;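 further: secreted streptokinase activity via plasminogen activation per viability signal from cell pellet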
T1 sequence (P10520 whole entry): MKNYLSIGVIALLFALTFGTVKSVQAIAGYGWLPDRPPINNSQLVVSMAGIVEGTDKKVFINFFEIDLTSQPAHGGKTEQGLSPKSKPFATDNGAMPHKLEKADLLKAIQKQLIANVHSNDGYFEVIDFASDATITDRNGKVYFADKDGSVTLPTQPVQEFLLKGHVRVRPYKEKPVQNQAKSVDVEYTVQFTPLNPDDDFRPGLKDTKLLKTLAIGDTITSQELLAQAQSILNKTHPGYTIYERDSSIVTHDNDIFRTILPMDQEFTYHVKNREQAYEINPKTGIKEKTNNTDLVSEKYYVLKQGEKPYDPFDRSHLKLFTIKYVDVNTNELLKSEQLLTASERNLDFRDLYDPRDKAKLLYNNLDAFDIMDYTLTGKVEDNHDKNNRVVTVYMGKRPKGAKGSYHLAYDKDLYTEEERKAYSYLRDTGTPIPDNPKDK

[5] = molecular target: Induced myeloid leukemia cell differentiation protein Mcl-1 (Homo sapiens, UniProt Q07820); type: functional
Sequence of Induced myeloid leukemia cell differentiation protein Mcl-1 (Q07820 whole entry): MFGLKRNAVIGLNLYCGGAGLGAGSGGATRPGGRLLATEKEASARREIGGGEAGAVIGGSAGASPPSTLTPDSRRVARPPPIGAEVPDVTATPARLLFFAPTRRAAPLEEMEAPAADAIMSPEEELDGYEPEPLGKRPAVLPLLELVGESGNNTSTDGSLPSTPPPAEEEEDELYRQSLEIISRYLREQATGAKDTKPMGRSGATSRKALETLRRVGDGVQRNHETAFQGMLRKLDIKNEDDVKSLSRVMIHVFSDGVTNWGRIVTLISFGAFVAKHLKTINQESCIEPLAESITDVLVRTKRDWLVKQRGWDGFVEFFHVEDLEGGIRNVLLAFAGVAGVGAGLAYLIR

[6] = tested on: BJ; assay: cytotoxicity toward BJ-TERT fibroblasts, dose response, cell-based, RAS-independent, luminescence (AID 1933); type: functional; conditions: Homo sapiens
[7] = tested on: BJ; assay: cytotoxicity toward BJ-TERT-LT-ST fibroblasts, dose response, cell-based, RAS-independent, luminescence (AID 1935); type: functional; conditions: Homo sapiens;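 further: BJ fibroblasts immortalized with TERT plus LT and ST oncogenes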
[8] = cytotoxicity toward DRD oncogenic fibroblasts, dose response, cell-based, non-viral oncogenic, luminescence (AID 1934); type: functional; conditions: Homo sapiens
[9] = tested on: Vero; assay: cells; type: functional; conditions: Chlorocebus sabaeus
[10] = tested on: BJ; assay: cells; type: functional, cell-based; conditions: Homo sapiens
[11] = NIH-3T3 fibroblast cytotoxicity, dose response, cytotoxicity control, cell-based, fluorescence, Alamar Blue, secondary assay (AID 2327); type: functional;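 further: NIH-3T3 mouse fibroblasts cultured with fluconazole at 8 µg/mL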
[12] = Luminescence Cell-Based Dose Response HTS to Identify Inhibitors of 5'UTR Stem-Loop Driven Prion Protein mRNA Translation in H4 Neuroglioblastoma Cells. [Related pubchem assays: 1827 (Project Summary), 1813 (Primary HTS)]; type: functional
[13] = inhibitors of SNCA 5'UTR-driven reporter translation, confirmation, H4 neuroglioma cells, luminescence (AID 1988); type: functional, cell-based
[14] = C. albicans growth with fluconazole, confirmation, fluorescence, retest (AID 2467); type: functional, cell-based
[15] = inhibitors of firefly luciferase expression or activity, dose response, H4 neuroglioma cells, luminescence (AID 1990); type: functional, cell-based
[16] = molecular target: Paired box protein Pax-8 (Homo sapiens, UniProt Q06710); assay: inhibitors of PAX8-driven TPO luciferase reporter, dose response, RMG-I cells, cherry-pick (AID 687027); type: functional, cell-based;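 further: luciferase reporter driven by Pax8 target thyroperoxidase promoter measured by SteadyGlo luminescence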
Sequence of Paired box protein Pax-8 (Q06710 whole entry): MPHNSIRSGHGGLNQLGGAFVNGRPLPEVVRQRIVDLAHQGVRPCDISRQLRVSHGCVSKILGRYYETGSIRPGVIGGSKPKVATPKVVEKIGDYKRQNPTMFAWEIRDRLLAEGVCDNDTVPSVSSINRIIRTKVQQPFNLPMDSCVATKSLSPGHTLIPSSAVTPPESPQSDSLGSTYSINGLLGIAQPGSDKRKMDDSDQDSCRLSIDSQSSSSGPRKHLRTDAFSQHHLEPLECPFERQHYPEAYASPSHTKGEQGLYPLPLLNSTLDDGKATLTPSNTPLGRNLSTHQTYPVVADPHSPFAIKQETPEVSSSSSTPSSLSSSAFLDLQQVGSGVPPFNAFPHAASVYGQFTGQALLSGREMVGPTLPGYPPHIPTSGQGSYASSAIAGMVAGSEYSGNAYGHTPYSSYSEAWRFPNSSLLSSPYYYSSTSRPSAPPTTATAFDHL

[17] = Luminescence Cell-Based Dose Confirmation HTS to Identify Inhibitors of Platelet Dense Granule Release. [Related pubchem assays: 1663 (Primary HTS), 1678 (Summary of Project)]; type: functional
[18] = molecular target: Luciferin 4-monooxygenase (Photinus pyralis, UniProt P08659); assay: firefly luciferase enzyme inhibitors, dose response, biochemical, luminescence (AID 1891)
Sequence of Luciferin 4-monooxygenase (P08659 whole entry): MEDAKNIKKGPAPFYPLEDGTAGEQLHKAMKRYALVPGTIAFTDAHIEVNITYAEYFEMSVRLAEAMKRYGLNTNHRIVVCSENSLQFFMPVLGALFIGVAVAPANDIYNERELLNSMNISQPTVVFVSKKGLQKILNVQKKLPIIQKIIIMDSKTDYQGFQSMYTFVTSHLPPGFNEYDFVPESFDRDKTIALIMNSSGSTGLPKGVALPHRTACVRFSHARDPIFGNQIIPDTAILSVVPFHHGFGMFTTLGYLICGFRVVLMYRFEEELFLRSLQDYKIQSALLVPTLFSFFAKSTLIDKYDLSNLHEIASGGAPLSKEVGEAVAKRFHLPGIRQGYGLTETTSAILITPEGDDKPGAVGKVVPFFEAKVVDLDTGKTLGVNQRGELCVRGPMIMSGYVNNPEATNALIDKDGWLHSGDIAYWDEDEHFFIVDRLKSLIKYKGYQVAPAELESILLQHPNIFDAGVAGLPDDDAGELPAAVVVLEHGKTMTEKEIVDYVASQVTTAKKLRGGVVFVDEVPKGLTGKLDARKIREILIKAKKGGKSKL

[19] = Luminescence Cell-Based Dose Response HTS to Identify Activators of Luciferase Translation or Activity in H4 […] Cells. [Related pubchem assays: 1829 (Project Summary), 1814 (Primary HTS)]; type: functional
[20] = Luminescence Cell-Based Dose Confirmation HTS to Identify Activators of 5'UTR Stem-Loop Driven Alpha-Synuclein mRNA Translation in H4 Neuroglioblastoma Cells. [Related pubchem assays: 1829 (Project Summary), 1814 (Primary HTS)]; type: functional
[21] = tested on: H4; assay: Luminescence Cell-Based Dose Response HTS to Identify Activators of 5'UTR Stem-Loop Driven Prion Protein mRNA Translation in H4 Neuroglioblastoma Cells. [Related pubchem assays: 1829 (Project Summary), 1814 (Primary HTS)]; type: functional; conditions: Homo sapiens
[22] = molecular target: T2, Heat shock factor protein 1 (Mus musculus, UniProt P38532); assay: HSF1 potentiators in luciferase reporter cells, confirmation, cell-based, NIH3T3, luminescence, dose retest (AID 435004); type: functional;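 further: stress induced by proteasome inhibitor MG132 added 30 min after compound; luciferase reporter driven by HSF1 response element in NIH3T3 cells; actives raise luminescence as potentiators of the MG132 stress response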
T2 sequence (P38532 whole entry): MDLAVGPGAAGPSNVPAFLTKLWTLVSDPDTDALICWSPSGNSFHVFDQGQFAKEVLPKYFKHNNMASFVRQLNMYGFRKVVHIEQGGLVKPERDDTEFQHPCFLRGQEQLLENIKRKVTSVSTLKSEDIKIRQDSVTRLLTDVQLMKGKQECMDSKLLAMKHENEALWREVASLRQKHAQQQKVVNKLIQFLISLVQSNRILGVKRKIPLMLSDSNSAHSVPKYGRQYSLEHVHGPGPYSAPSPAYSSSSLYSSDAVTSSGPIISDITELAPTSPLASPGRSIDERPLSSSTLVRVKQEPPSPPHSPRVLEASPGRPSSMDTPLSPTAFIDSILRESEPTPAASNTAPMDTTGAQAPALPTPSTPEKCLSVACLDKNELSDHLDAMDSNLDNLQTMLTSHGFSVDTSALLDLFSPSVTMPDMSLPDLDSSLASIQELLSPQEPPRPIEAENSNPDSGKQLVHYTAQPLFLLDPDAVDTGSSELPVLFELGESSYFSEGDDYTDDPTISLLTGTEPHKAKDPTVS

[23] = molecular target: T2, Heat shock factor protein 1; assay: inhibition of MG132-induced HSE-luciferase signal, confirmation, cell-based, NIH3T3, luminescence, dose retest (AID 2382); type: functional;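 further: NIH3T3 fibroblasts with HSF1-driven luciferase reporter stressed by proteasome inhibitor MG132; luminescence from HSF1-driven luciferase expression after 8 hours of MG132 stress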
[24] = cytotoxicity toward NIH3T3 fibroblasts, dose response, counter-screen, cell-based, ATP luminescence, mouse fibroblasts (AID 2010); type: functional;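 further: cells exposed to compound for about 90 hours before reading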
[25] = inhibitors of intracellular T. cruzi replication, confirmation, NIH3T3 host cells, beta-gal luminescence (AID 2044); type: functional, cell-based;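 further: intracellular parasites grown in NIH/3T3 mouse fibroblasts as host cells; luminescent beta-galactosidase reporter signal from transgenic T. cruzi replicating inside host cells; inhibitors lower the luminescence signal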
[26] = Luminescence Cell-Based Dose Retest to Confirm Inhibitors of Cancer Stem Cells. [Related pubchem assays (depositor defined):AID2717, AID2721]; type: functional; conditions: Homo sapiens
[27] = molecular target: T3, Polyadenylate-binding protein 1 (Homo sapiens, UniProt P11940); assay: PABP1 MLLE–PAM2 binding inhibitor potency, dose response, biochemical, fluorescence polarization, FITC-PAM2 peptide (AID 602259); type: functional; conditions: read-out: IC50_Mean
T3 sequence (P11940 whole entry): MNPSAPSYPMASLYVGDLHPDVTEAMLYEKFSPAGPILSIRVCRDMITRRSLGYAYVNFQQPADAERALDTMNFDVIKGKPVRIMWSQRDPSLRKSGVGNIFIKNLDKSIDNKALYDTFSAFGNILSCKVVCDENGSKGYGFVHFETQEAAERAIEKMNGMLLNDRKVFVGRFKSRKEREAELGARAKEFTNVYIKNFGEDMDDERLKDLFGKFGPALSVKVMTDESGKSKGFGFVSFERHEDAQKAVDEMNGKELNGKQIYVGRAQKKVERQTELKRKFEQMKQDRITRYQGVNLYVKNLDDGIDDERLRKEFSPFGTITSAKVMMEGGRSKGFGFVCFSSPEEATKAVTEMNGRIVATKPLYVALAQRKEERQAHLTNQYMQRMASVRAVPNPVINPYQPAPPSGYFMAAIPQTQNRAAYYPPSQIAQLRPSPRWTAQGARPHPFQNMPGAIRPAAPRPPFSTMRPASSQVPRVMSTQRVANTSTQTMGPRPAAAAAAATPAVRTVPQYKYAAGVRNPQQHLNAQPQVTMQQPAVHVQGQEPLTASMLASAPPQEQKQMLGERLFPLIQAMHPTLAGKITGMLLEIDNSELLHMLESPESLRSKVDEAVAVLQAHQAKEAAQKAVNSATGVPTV

[28] = molecular target: T3, Polyadenylate-binding protein 1; assay: PABP1 MLLE–PAM2 interaction inhibitors, dose response, miRNA deadenylation inhibitor project, biochemical, fluorescence polarization, Cy5-PAM2 peptide, secondary (AID 602260); type: functional; conditions: read-out: IC50_Mean

Sequence of FAD-linked sulfhydryl oxidase ALR (P55789 whole entry): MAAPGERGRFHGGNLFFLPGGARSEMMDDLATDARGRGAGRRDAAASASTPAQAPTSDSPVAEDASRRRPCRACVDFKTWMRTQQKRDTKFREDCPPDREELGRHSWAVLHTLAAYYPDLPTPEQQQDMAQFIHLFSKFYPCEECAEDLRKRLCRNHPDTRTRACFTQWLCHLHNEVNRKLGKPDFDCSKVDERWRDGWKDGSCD

For `CCCc1ccc(-c2cc(N)[nH]n2)cc1`, the AC50 [1] was 11.3 µM (active), the EC50 [2] was 30.9 µM (active) and the EC50 [3] was > 150 µM (not active). For the same compound, the EC50 [4] was > 150 µM (not active).
In the case of `CCC(C)NCCCOc1c(C)cc(C)cc1Br` (configuration not stated), the IC50 [5] is reported as 6.63 µM (not active).
For `COc1ccc(C=C2c3ccccc3C(=O)c3ccccc32)c(OC)c1`, the EC50 [6] was 2.8 µM (inconclusive), the EC50 [7] was 18.3 µM (inconclusive) and the EC50 [8] was 2.6 µM (active). The CC50 [9] was < 0.05 µM (active) and the EC50 [10] was 2.33 µM (inconclusive).
For `O=C(Nc1ccc(OCc2ccccc2Cl)cc1)c1cccnc1`, the EC50 [11] was > 150 µM (inactive), the EC50 [12] was 0.909 µM (active) and the EC50 [13] was 0.485 µM (active). The EC50 [14] was > 38 µM (not active) and the EC50 [15] was 3.07 µM (active).
For `C[C@@H]1CCCCO[C@@H](CN(C)C(=O)C2CCCCC2)[C@H](C)CN([C@H](C)CO)C(=O)c2cc(NS(=O)(=O)c3ccc(Cl)cc3)ccc2O1`, the AC50 [16] was 4.99 µM (active).
With `COCC(C)n1c(C)cc(C(=O)CN2C(=O)NC(Cc3c[nH]c4ccccc34)C2=O)c1C` (configuration not stated) the EC50 [17] was > 112 µM (not active) and the EC50 [18] was > 112 µM (not active).
In the case of `CCn1cc(/C=N\NC(=O)c2ccc3c(c2)c(C)c(C)n3Cc2ccccc2)c(C)n1`, the EC50 [6] is reported as > 150 µM (not active), the EC50 [7] is reported as > 150 µM (not active) and the EC50 [8] is reported as > 150 µM (not active). The EC50 [10] was > 150 µM (not active).
For `COc1ccc2o/c(=N\O)c(C(=O)Nc3ccc(C)cc3)cc2c1`, the EC50 [19] was 14.1 µM (active), the EC50 [20] was 16.6 µM (active) and the EC50 [21] was 15.2 µM (active). The CC50 [9] was > 25 µM (active).
With `CCc1ccc(N(C(=O)c2snc(C(N)=O)c2N)C(C(=O)NCCC(C)C)c2c[nH]c3ccccc23)cc1` (configuration not stated) the EC50 [22] was 139 µM (active).
With `Cc1ccc(C(=O)O/N=C(\N)c2ccccc2)c(Cl)c1` the EC50 [17] was 2.42 µM (active), the EC50 [23] was < 0.16 µM (active) and the EC50 [18] was 1.03 µM (active).
With `Cc1cc2oc(=O)cc(CNc3ccccc3F)c2cc1O` the EC50 [24] was > 60 µM (not active), the EC50 [2] was 9.59 µM (active) and the EC50 [3] was > 150 µM (not active). For the same compound, the EC50 [25] was 1.81 µM (active) and the EC50 [4] was 51.2 µM (active).
In the case of `COc1ccc(C2=CC(c3ccc(OC)c(OC)c3)c3c(c4ccccc4oc3=O)O2)cc1OC` (configuration not stated), the EC50 [6] is reported as 5.11 µM (active), the EC50 [7] is reported as 27.7 µM (active) and the EC50 [8] is reported as 17.3 µM (active). For the same compound, the EC50 [23] was > 195 µM (not active) and the EC50 [10] was 51.8 µM (active).
In the case of `CC(C)OC(=O)c1c2nc3ccccc3nc2n2c1nc(O)c1ccccc12`, the EC50 [2] is reported as 1.24 µM (active), the EC50 [3] is reported as 39.6 µM (active) and the EC50 [4] is reported as > 150 µM (not active).
With `CN(C)CCOC1(Cc2ccc(F)cc2)CCC(C(C)(C)C)CC1` (configuration not stated) the CC50 [9] was > 25 µM (active).
With `Nc1cc(-c2ccc(OC(F)(F)F)cc2)nn1-c1ccc(Cl)c(Cl)c1` the EC50 [2] was 6.98 µM (active), the EC50 [3] was 11.6 µM (active) and the EC50 [4] was 20 µM (inconclusive). The AC50 [26] was 4.74 µM (active).
For `O=C(CC(Sc1ccccc1)c1cccs1)c1ccco1` (configuration not stated), the IC50 [27] was > 66 µM (inactive) and the IC50 [28] was > 66 µM (inactive).
For `CCCn1nc(C(=O)NNC(=O)c2cccc(S(=O)(=O)NC(C)C)c2)c2ccccc2c1=O`, the EC50 [17] was > 112 µM (not active) and the EC50 [18] was > 112 µM (not active).
